Measured values taken from patent EP1240898A2, “Use of 2-deoxy ecdysterone for the preparation of a medicament for inducing labour or abortion” (Council of Scientific and Industrial Research, priority 2000, dated 2001).

Experiments:
[1] = tested on: guinea pig uterus; assay: Oxytocic activity on isolated guinea pig uterus (height of contraction compared with standard oxytocin or PGF2α); type: cell-based; settings: at the concentration of 200 µg/ml
[2] = radiolabelled, injected into human volunteers, within 5 hours; cited from earlier work

SMILES | potency compared with the standards (in words) [1] | radioactivity excreted in the urine [2]
CC(C)(O)CC[C@@H](O)[C@](C)(O)[C@H]1CC[C@@]2(O)C3=CC(=O)[C@@H]4C[C@@H](O)CC[C@]4(C)[C@H]3CC[C@]12C [2-deoxy ecdysterone] | more potent than the standard oxytocin and PGF2α | 
CCCCC[C@H](O)/C=C/[C@@H]1[C@@H](C/C=C\CCCC(=O)O)[C@@H](O)C[C@H]1O [PGF2α] |  | around 90%
CCCCC[C@H](O)/C=C/[C@H]1[C@H](O)CC(=O)[C@@H]1C/C=C\CCCC(=O)O [PGE2] |  | about 50%
